Data taken from patent publication US20210338652A1, “COMPOSITION AND USE FOR THE TREATMENT OF PARKINSON'S DISEASE AND RELATED DISORDERS” (CHASE THERAPEUTICS CORPORATION, priority 2018, published 2021).
Read-outs that look alike come from different tables or passages of the source.

Legend:
humans = settings: for Maximal Tolerated Dose (MTD): oral pramipexole escalation to max 6 mg, ondansetron 8 mg or aprepitant 80 mg where combined
Method: The ability of a 5HT3-antagonist and of a NK1-antagonist for preventing the adverse effects of a DA-agonist in humans was tested.
To be enrolled in the study, participants the following inclusion/exclusion key criteria:
• 1. Male and female subjects aged 20-45 years old both ages included. • 2. Females of childbearing potential must agree to be abstinent or else use any two of the following medically acceptable forms of contraception from the Screening Period through 14 days after the study Exit Visit: condom with spermicidal jelly, diaphragm or cervical cap with spermicidal jelly, or intrauterine device (IUD). […] Subjects must agree to practice the above birth control methods for 14 days after the final visit as a safety precaution. • 3. […] The reason must be documented in the source documents. • 4. […] Males with female partners of childbearing potential who themselves are surgically sterile (status post vasectomy) must agree to use condoms with spermicide over the same period of time. Male subjects must agree to practice the above birth control methods for 14 days after the final visit as a safety precaution. • 5. Subjects must be in good health as determined by their medical history including personal and family psychiatric history and results of physical examination, electrocardiogram (ECG), vital signs, and laboratory tests. A subject with a medical abnormality may be included only if the investigator or designee considers that the abnormality will not introduce significant additional risk to the subject's health or interfere with study objectives. • 6. Subjects must be able to clearly and reliably communicate changes in their medical condition. • 7. Subjects with a body mass index (BMI) between 19.0 and 32.0 kg/m^2 (both inclusive). • 8. Subjects able to swallow multiple pills or capsules simultaneously. • 9.
The criteria for exclusion of a subject from enrollment in the study were as follows: • 1. Any clinically relevant acute or chronic diseases, which could interfere with the subjects' safety during the trial, expose them to undue risk, or interfere with the study objectives. • 2. History or presence of gastrointestinal, hepatic, or renal disease or other condition known to interfere with the absorption, distribution, metabolism or excretion of the study drugs. • 3. History of substance abuse, known drug addiction, or positive test for drugs of abuse or alcohol. • 4. History of drug or other significant allergy. • 5. […] History of and/or current QT interval prolongation, congenital long QT syndrome, electrolyte abnormalities (e.g., hypokalemia or hypomagnesemia), congestive heart failure, bradyarrhythmias or other medicinal products that lead to QT prolongation or 1st degree AV block at Screening, Day−1, or pre-dose, ≥450 QTcF for males and ≥470 QTcF for females. • 7. […] Tobacco or nicotine users (except subjects who stopped using tobacco or nicotine 1 year or more before enrollment in the study). • 9. Excessive daily consumption of xanthines containing drinks (i.e. >500 mg/day of caffeine). • 10. Subjects unwilling to curtail prolonged intensive physical exercise during the study conduct (from the Screening visit until the last dose of study drug). • 11. […] Positive test result for HIV 1 or 2 serology. • 13. Likely to need any medical or dental treatment during the study period. • 14. […] Show evidence of suicidal ideation within the last 6 months as assessed by the C-SSRS (Columbia Suicide Severity Rating Scale) at Screening. […]

[1] = in vivo; cited from earlier work

CCCN[C@H]1CCc2nc(N)sc2C1 [Pramipexole, (S)-6-propylamino-4,5,6,7-tetrahydro-1,3-benzothiazole-2-amine]
dose limiting toxicity (humans; both, human, in vivo): gastro-intestinal adverse event in all 4 subjects
Maximal Tolerated Dose (MTD) (humans; subject 1001): 2.0 mg
Maximal Tolerated Dose (MTD) (humans; subject 1006): <0.5 mg
Maximal Tolerated Dose (MTD) (humans; subject 1007): 4.0 mg
Maximal Tolerated Dose (MTD) (humans; subject 1008): 1.0 mg

C=CCN1C[C@H](C(=O)N(CCCN(C)C)C(=O)NCC)C[C@@H]2c3cccc4[nH]cc(c34)C[C@H]21 [cabergoline, (6aR,9R,10aR)—N-[3-(dimethylamino)propyl]-N-(ethylcarbamoyl)-7-prop-2-enyl-6,6a,8,9,10,10a-hexahydro-4H-indolo[4,3-fg]quinoline-9-carboxamide]
plasma half-life [1]: about 65 hours
